Test results as given in patent US10336761B2, “TGFβ receptor antagonist” (BRISTOL-MYERS SQUIBB COMPANY, priority 2015, dated 2019).

Molecular target: HIS-TGFβR1 T204D (Homo sapiens (Human), UniProt P36897, T204D)
Test: HTRF probe-displacement assay, HIS-TGFβR1 T204D
Format: binding
Conditions: 1 hour at room temperature

Sequence of HIS-TGFβR1 T204D (P36897 34-503 T204D): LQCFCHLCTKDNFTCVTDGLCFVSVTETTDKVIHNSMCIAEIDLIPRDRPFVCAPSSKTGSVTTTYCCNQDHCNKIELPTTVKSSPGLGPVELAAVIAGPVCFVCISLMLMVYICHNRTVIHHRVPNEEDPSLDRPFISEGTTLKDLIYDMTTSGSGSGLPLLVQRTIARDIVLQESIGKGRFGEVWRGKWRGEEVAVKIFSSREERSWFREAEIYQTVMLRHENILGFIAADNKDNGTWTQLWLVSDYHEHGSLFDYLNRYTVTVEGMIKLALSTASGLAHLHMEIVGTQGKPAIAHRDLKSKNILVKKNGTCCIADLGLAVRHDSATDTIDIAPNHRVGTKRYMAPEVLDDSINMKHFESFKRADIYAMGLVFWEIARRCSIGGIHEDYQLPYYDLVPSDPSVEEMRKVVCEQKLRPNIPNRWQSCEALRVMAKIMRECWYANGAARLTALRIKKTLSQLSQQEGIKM

**Q.** `COCc1noc(CNC(=O)c2cnccc2Nc2nc(-c3cccc(C(F)F)n3)nn3cccc23)n1` [Example 205, 4-({2-[6-(difluoromethyl)pyridin-2-yl]pyrrolo[2,1-f][1,2,4]triazin-4-yl}amino)-N-{[3-(methoxymethyl)-1,2,4-oxadiazol-5-yl]methyl}pyridine-3-carboxamide] was tested. Which IC50 did it give?
**A.** The IC50 was 22 nM.

**Q.** How did the IC50 turn out when `COc1cccc(-c2nc(Nc3ccncc3F)c3cc(NC(=O)CN4CCOCC4)cn3n2)n1` [Example 106, N-{4-[(3-fluoropyridin-4-yl)amino]-2-(6-methoxypyridin-2-yl)pyrrolo[2,1-f][1,2,4]triazin-6-yl}-2-(morpholin-4-yl)acetamide] was run?
**A.** The IC50 was 1400 nM.

**Q.** How did the IC50 turn out when `O=C(NCCN1CCCC1)c1cnccc1Nc1nc(-c2ccccn2)nn2cccc12` [Example 142] was run?
**A.** The IC50 was 19 nM.

**Q.** With `COc1cccc(-c2nc(Nc3ccnc(NCCN4CCOCC4)c3)c3cccn3n2)n1` [Example 139, 4-N-[2-(6-methoxypyridin-2-yl)pyrrolo[2,1-f][1,2,4]triazin-4-yl]-2-N-[2-(morpholin-4-yl)ethyl]pyridine-2,4-diamine] as the molecule, how does the IC50 read?
**A.** The IC50 was 190 nM.

**Q.** How did the IC50 turn out when `CN(C)CCNCc1ccn2nc(-c3ccccn3)nc(Nc3ccncc3F)c12` [Example 280, N-[5-({[2-(dimethylamino)ethyl]amino}methyl)-2-(pyridin-2-yl)pyrrolo[2,1-f][1,2,4]triazin-4-yl]-3-fluoropyridin-4-amine] was run?
**A.** The IC50 was 1.4 nM.

**Q.** How did the IC50 turn out when `CN1CCC(OCc2ccn3nc(-c4ccccn4)nc(Nc4ccncc4F)c23)CC1` [Example 328, 3-fluoro-N-(5-{[(1-methylpiperidin-4-yl)oxy]methyl}-2-(pyridin-2-yl)pyrrolo[2,1-f][1,2,4]triazin-4-yl)pyridin-4-amine] was run?
**A.** Its IC50 is 13 nM.

**Q.** Which IC50 does the source give for `Cc1cccc(-c2nc(Nc3ccncc3C(=O)NC3COC3)c3cccn3n2)n1` [Example 165, 4-{[2-(6-methylpyridin-2-yl)pyrrolo[2,1-f][1,2,4]triazin-4-yl]amino}-N-(oxetan-3-yl)pyridine-3-carboxamide] here?
**A.** Its IC50 is 14 nM.

**Q.** How did the IC50 turn out when `COc1cccc(-c2nc(Nc3ccncc3F)c3cccn3n2)n1` [Example 58, 3-fluoro-N-[2-(6-methoxypyridin-2-yl)pyrrolo[2,1-f][1,2,4]triazin-4-yl]pyridin-4-amine] was run?
**A.** The IC50 was 4 nM.

**Q.** For `OCC(CO)NCc1ccn2nc(-c3ccccn3)nc(Nc3ccncc3F)c12` [Example 264, 2-[({4-[(3-fluoropyridin-4-yl)amino]-2-(pyridin-2-yl)pyrrolo[2,1-f][1,2,4]triazin-5-yl}methyl)amino]propane-1,3-diol], which IC50 is on record?
**A.** Its IC50 is 1.7 nM.

**Q.** How did the IC50 turn out when `O=C(c1cnccc1Nc1nc(-c2cccc(C(F)F)n2)nn2cccc12)N1CCCC1` [Example 186, N-{2-[6-(difluoromethyl)pyridin-2-yl]pyrrolo[2,1-f][1,2,4]triazin-4-yl}-3-(pyrrolidine-1-carbonyl)pyridin-4-amine] was run?
**A.** Its IC50 is 32 nM.

**Q.** `CC(C)(O)CNCc1ccn2nc(-c3cccc(C(F)(F)F)n3)nc(Nc3ccncc3F)c12` [Example 124, 1-[({4-[(3-fluoropyridin-4-yl)amino]-2-[6-(trifluoromethyl)pyridin-2-yl]pyrrolo[2,1-f][1,2,4]triazin-5-yl}methyl)amino]-2-methylpropan-2-ol] was tested. Which IC50 did it give?
**A.** Its IC50 is 6 nM.

**Q.** How did the IC50 turn out when `Cc1nnc(NCc2ccn3nc(-c4ccccn4)nc(Nc4ccncc4F)c23)s1` [Example 308, 3-fluoro-N-(5-{[(5-methyl-1,3,4-thiadiazol-2-yl)amino]methyl}-2-(pyridin-2-yl)pyrrolo[2,1-f][1,2,4]triazin-4-yl)pyridin-4-amine] was run?
**A.** Its IC50 is 4.7 nM.

**Q.** How did the IC50 turn out when `FC(F)c1cccc(-c2nc(Nc3ccncc3Cl)c3cccn3n2)n1` [Example 80, 3-chloro-N-{2-[6-(difluoromethyl)pyridin-2-yl]pyrrolo[2,1-f][1,2,4]triazin-4-yl}pyridin-4-amine] was run?
**A.** The IC50 was 1.1 nM.

**Q.** Which IC50 does the source give for `Cc1cccc(-c2nc(Nc3ccncc3Cl)c3cccn3n2)n1` [Example 59, 3-chloro-N-[2-(6-methylpyridin-2-yl)pyrrolo[2,1-f][1,2,4]triazin-4-yl]pyridin-4-amine] here?
**A.** Its IC50 is 1.6 nM.

**Q.** Which IC50 does the source give for `FC(F)c1cnccc1Nc1nc(-c2cccc(C(F)(F)F)n2)nn2cccc12` [Example 2, 3-(difluoromethyl)-N-{2-[6-(trifluoromethyl)pyridin-2-yl]pyrrolo[2,1-f][1,2,4]triazin-4-yl}pyridin-4-amine] here?
**A.** Its IC50 is 11 nM.

**Q.** With `Fc1cnccc1Nc1nc(-c2ccccn2)nn2ccc(CNC3CCNCC3)c12` [Example 307, 3-fluoro-N-(5-{[(piperidin-4-yl)amino]methyl}-2-(pyridin-2-yl)pyrrolo[2,1-f][1,2,4]triazin-4-yl)pyridin-4-amine] as the molecule, how does the IC50 read?
**A.** The IC50 was 9.1 nM.

**Q.** `Fc1cnccc1Nc1nc(-c2ccccn2)nn2ccc(CNc3cc(-c4ccccc4)[nH]n3)c12` [Example 298, 3-fluoro-N-(5-{[(5-phenyl-1H-pyrazol-3-yl)amino]methyl}-2-(pyridin-2-yl)pyrrolo[2,1-f][1,2,4]triazin-4-yl)pyridin-4-amine] was tested. Which IC50 did it give?
**A.** The IC50 was 27 nM.

**Q.** `CN1CCN(CCCNC(=O)c2cnccc2Nc2nc(-c3cccc(C(F)F)n3)nn3cccc23)CC1` [Example 176, 4-({2-[6-(difluoromethyl)pyridin-2-yl]pyrrolo[2,1-f][1,2,4]triazin-4-yl}amino)-N-[3-(4-methylpiperazin-1-yl)propyl]pyridine-3-carboxamide] was tested. Which IC50 did it give?
**A.** Its IC50 is 8.5 nM.

**Q.** How did the IC50 turn out when `Cc1cccc(-c2nc(Nc3ccncc3C(=O)N3CCOCC3)c3cccn3n2)n1` [Example 163, N-[2-(6-methylpyridin-2-yl)pyrrolo[2,1-f][1,2,4]triazin-4-yl]-3-(morpholine-4-carbonyl)pyridin-4-amine] was run?
**A.** The IC50 was 30 nM.

**Q.** `Fc1cnccc1Nc1nc(-c2ncccc2F)nn2cccc12` [Example 260, 3-fluoro-N-[2-(3-fluoropyridin-2-yl)pyrrolo[2,1-f][1,2,4]triazin-4-yl]pyridin-4-amine] was tested. Which IC50 did it give?
**A.** Its IC50 is 3.2 nM.

**Q.** With `O=C(NCCC(F)(F)F)c1cnccc1Nc1nc(-c2cccc(C(F)F)n2)nn2cccc12` [Example 202, 4-({2-[6-(difluoromethyl)pyridin-2-yl]pyrrolo[2,1-f][1,2,4]triazin-4-yl}amino)-N-(3,3,3-trifluoropropyl)pyridine-3-carboxamide] as the molecule, how does the IC50 read?
**A.** The IC50 was 140 nM.

**Q.** Which IC50 does the source give for `Cc1nc2ccc(NCc3ccn4nc(-c5ccccn5)nc(Nc5ccncc5F)c34)cc2s1` [Example 295, N-({4-[(3-fluoropyridin-4-yl)amino]-2-(pyridin-2-yl)pyrrolo[2,1-f][1,2,4]triazin-5-yl}methyl)-2-methyl-1,3-benzothiazol-6-amine] here?
**A.** The IC50 was 30 nM.

**Q.** For `CCc1cc2c(Nc3ccncc3F)nc(-c3cccc(OC)n3)nn2c1` [Example 29, 6-ethyl-N-(3-fluoropyridin-4-yl)-2-(6-methoxypyridin-2-yl)pyrrolo[2,1-f][1,2,4]triazin-4-amine], which IC50 is on record?
**A.** Its IC50 is 16 nM.

**Q.** For `CN1CCN(CC(=O)Nc2cc(Nc3nc(-c4cccc(C(F)(F)F)n4)nn4cccc34)ccn2)CC1` [Example 316, 2-(4-methylpiperazin-1-yl)-N-[4-({2-[6-(trifluoromethyl)pyridin-2-yl]pyrrolo[2,1-f][1,2,4]triazin-4-yl}amino)pyridin-2-yl]acetamide], which IC50 is on record?
**A.** The IC50 was 1 nM.

**Q.** Which IC50 does the source give for `Cc1cccc(-c2nc(Nc3ccncc3C(=O)N(C)CCN(C)C)c3cccn3n2)n1` [Example 162, N-[2-(dimethylamino)ethyl]-N-methyl-4-{[2-(6-methylpyridin-2-yl)pyrrolo[2,1-f][1,2,4]triazin-4-yl]amino}pyridine-3-carboxamide] here?
**A.** The IC50 was 110 nM.

**Q.** With `COc1cccc(-c2nc(Nc3ccncn3)c3cccn3n2)n1` [Example 67, N-[2-(6-methoxypyridin-2-yl)pyrrolo[2,1-f][1,2,4]triazin-4-yl]pyrimidin-4-amine] as the molecule, how does the IC50 read?
**A.** The IC50 was 55 nM.

**Q.** How did the IC50 turn out when `NC(=O)c1cnccc1Nc1nc(-c2ccccn2)nn2cccc12` [Example 83, 4-{[2-(pyridin-2-yl)pyrrolo[2,1-f][1,2,4]triazin-4-yl]amino}pyridine-3-carboxamide] was run?
**A.** The IC50 was 0.76 nM.

**Q.** `Cc1cc(Nc2nc(-c3cccc(C(F)(F)F)n3)nn3cccc23)ccn1` [Example 257, 2-methyl-N-{2-[6-(trifluoromethyl)pyridin-2-yl]pyrrolo[2,1-f][1,2,4]triazin-4-yl}pyridin-4-amine] was tested. Which IC50 did it give?
**A.** Its IC50 is 660 nM.

**Q.** Which IC50 does the source give for `CS(=O)(=O)Nc1cccc(-c2nc(Nc3ccncc3)c3cccn3n2)n1` [Example 8, N-(6-{4-[(pyridin-4-yl)amino]pyrrolo[2,1-f][1,2,4]triazin-2-yl}pyridin-2-yl)methanesulfonamide] here?
**A.** The IC50 was 12 nM.

**Q.** With `CC(=O)Nc1cc(Nc2nc(-c3ccccn3)nn3ccc(CN4CCN(CCO)CC4)c23)ccn1` [Example 250, N-{4-[(5-{[4-(2-hydroxyethyl)piperazin-1-yl]methyl}-2-(pyridin-2-yl)pyrrolo[2,1-f][1,2,4]triazin-4-yl)amino]pyridin-2-yl}acetamide] as the molecule, how does the IC50 read?
**A.** The IC50 was 1.2 nM.

**Q.** With `OC1(c2ccccc2)CCN(Cc2ccn3nc(-c4ccccn4)nc(Nc4ccncc4F)c23)CC1` [Example 277, 1-({4-[(3-fluoropyridin-4-yl)amino]-2-(pyridin-2-yl)pyrrolo[2,1-f][1,2,4]triazin-5-yl}methyl)-4-phenylpiperidin-4-ol] as the molecule, how does the IC50 read?
**A.** The IC50 was 1.5 nM.

**Q.** For `Cc1cccc(-c2nc(Nc3ccncc3OCCCN3CCOCC3)c3cccn3n2)n1` [Example 222, N-[2-(6-methylpyridin-2-yl)pyrrolo[2,1-f][1,2,4]triazin-4-yl]-3-[3-(morpholin-4-yl)propoxy]pyridin-4-amine], which IC50 is on record?
**A.** Its IC50 is 67 nM.

**Q.** How did the IC50 turn out when `Fc1cnccc1Nc1nc(-c2ccccn2)nn2ccc(CNCCCn3ccnc3)c12` [Example 281, 3-fluoro-N-[5-({[3-(1H-imidazol-1-yl)propyl]amino}methyl)-2-(pyridin-2-yl)pyrrolo[2,1-f][1,2,4]triazin-4-yl]pyridin-4-amine] was run?
**A.** Its IC50 is 1.6 nM.

**Q.** How did the IC50 turn out when `O=C(c1cnccc1Nc1nc(-c2cccc(C(F)F)n2)nn2cccc12)N1CCC(O)CC1` [Example 200, 1-[4-({2-[6-(difluoromethyl)pyridin-2-yl]pyrrolo[2,1-f][1,2,4]triazin-4-yl}amino)pyridine-3-carbonyl]piperidin-4-ol] was run?
**A.** The IC50 was 3500 nM.

**Q.** How did the IC50 turn out when `CC(C)(C)C(=O)Nc1cc(Nc2nc(-c3cccc(C(F)(F)F)n3)nn3cccc23)ccn1` [Example 342, 2,2-dimethyl-N-[4-({2-[6-(trifluoromethyl)pyridin-2-yl]pyrrolo[2,1-f][1,2,4]triazin-4-yl}amino)pyridin-2-yl]propanamide] was run?
**A.** Its IC50 is 160 nM.
